The values that follow come from patent US11236055B2 (Venenum Biodesign, LLC, priority 2016, dated 2022).

The target of one assay is T1, human TGR5 receptor (Homo sapiens, UniProt Q8TDU6).
T1 construct: host or cells: CHO-K1 (hTGR5-CHO cells)
T1 sequence (Q8TDU6 1-330): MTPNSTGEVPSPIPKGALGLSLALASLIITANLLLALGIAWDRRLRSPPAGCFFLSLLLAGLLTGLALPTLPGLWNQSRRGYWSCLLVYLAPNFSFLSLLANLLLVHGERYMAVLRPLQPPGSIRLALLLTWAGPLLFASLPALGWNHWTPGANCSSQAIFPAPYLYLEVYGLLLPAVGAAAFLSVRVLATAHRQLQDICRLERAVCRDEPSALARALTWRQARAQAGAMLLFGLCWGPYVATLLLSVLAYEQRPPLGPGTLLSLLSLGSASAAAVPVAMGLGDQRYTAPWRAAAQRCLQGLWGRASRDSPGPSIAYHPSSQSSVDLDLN
As to the kind of experiment: Human TGR5 cAMP production assay. The class given is cell-based. Particulars: human TGR5, luminescent cAMP assay; coded A-D; read-out: Human TGR5 Lum. cAMP Activity (EC50). The method in brief: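 Intracellular cAMP read by luminescent enzyme-complementation (XS+) after overnight development, following 1 h room-temperature compound treatment of hTGR5-CHO-K1 cells in IBMX plus anti-cAMP antibody. Compounds tested as half-log dilution series; EC50 derived.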

The target of another assay is T2, mouse TGR5 receptor (Mus musculus, UniProt Q80SS6).
T2 construct: expressed in transfected cells; host or cells: HEK293-EBNA (293 c18, ATCC CRL10852), Hygromycin B selection
T2 sequence (Q80SS6 1-329): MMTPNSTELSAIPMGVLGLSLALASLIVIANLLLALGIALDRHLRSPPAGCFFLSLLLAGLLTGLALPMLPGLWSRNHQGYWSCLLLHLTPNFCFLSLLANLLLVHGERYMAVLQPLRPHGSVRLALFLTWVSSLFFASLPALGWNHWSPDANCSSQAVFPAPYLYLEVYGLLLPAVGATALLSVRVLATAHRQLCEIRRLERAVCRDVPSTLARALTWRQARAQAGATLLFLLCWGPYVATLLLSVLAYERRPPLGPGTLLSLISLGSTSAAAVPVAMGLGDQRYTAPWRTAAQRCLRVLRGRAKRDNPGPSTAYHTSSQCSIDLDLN
As to the kind of experiment: Mouse TGR5 cAMP production assay (luminescent, DiscoveRx cAMP XS+). The assay is classed as cell-based. Particulars: HEK293-EBNA cells overexpressing mouse TGR5, luminescent cAMP XS+; coded A-D; read-out: Mouse TGR5 Lum. cAMP Activity (EC50). From the text:
Mouse TGR5 cAMP Production Assay
We evaluated compounds of the present invention for their ability to induce cAMP production in HEK-EBNA cells overexpressing the mouse TGR5 receptor. Human embryonic kidney cells (HEK293-EBNA) stably expressing mouse TGR5 receptor were established using the following procedure. Specifically, a commercially-obtained gene encoding mouse TGR5 (accession number BC116914) from Thermo Scientific (Waltham, Mass.) was cloned into an episomal expression vector. The resulting expression plasmid was then transfected into 293 c18 (ATCC® CRL10852™) cells, which express the Epstein-Barr virus nuclear antigen EBNA1 and can support the replication of episomal vectors. Selection for the plasmid was maintained with Hygromycin B. Cells were cultured and maintained in DMEM (Sigma; cat #6429) supplemented with 10% Fetal Bovine Serum, 1% penicillin/streptomycin, 2 mM L-alanine L-glutamine (GlutaMax), and 250 μg/mL Hygromycin.
Two cAMP production assays were developed.
1. Luminescent cAMP Production Assay
In this first cAMP production assay, the cAMP production was measured using DiscoveRx's cAMP XS+ kit following the manufacturer's recommended protocol.
Briefly, HEK293-EBNA cells stably overexpressing mouse TGR5 were harvested using non-enzymatic cell dissociation buffer (Sigma-Aldrich, St. Louis, Mo.), spun down, then resuspended in serum-free DMEM with 500 μM IBMX at a density of 1.25×10^6 cells/mL. 500 μL of cAMP antibody solution was added to […] of cell suspension and incubated at room temperature for 20 min.
Test compounds were serially diluted (half-log dilutions) in DMSO and then further diluted 1:50 in PBS, 10 mM HEPES buffer. 2 μL of serially diluted compound was added to a 384-well low volume plate (Greiner cat #784075) and centrifuged briefly. 2 μL of the cell/cAMP antibody mixture was then added to each compound-containing well and allowed to incubate at room temperature for one (1) hour. Following incubation, the XS+ kits' ED/Lysis/CL Substrate Working Solution was prepared following the manufacturer's recommended protocol and 4 μL was added to each well of the plate. The plate was then incubated for one (1) hour at room temperature. Following incubation, 4 μL of (Enzyme Acceptor) EA reagent was added to the plate and allowed to incubate overnight at room temperature. Luminescent signal was then detected using the Viewlux instrument (Perkin-Elmer, Waltham, Mass.).
In Table 33, EC50 values for both human and mouse cells were determined according to the TGR5 cAMP assays described above.
In general terms: Changes in cAMP serve as a functional read-out for many G protein-coupled receptors.

SMILES strings stand for the structures.

Take `COc1cnccc1-c1cccc(CNS(=O)(=O)c2cccc(C(F)(F)F)c2)n1` [Compound 1BQ]: the EC50 on human TGR5 receptor and at mouse TGR5 receptor was 1000 to 30000 nM each time.
Regarding `COc1cnccc1-c1ccnc(CNS(=O)(=O)c2cccc(C(F)(F)F)c2)c1` [Compound 1BR], the EC50 at human TGR5 receptor and on mouse TGR5 receptor was 1000 to 30000 nM in each case.
Regarding `O=S(=O)(NCc1ccc(Cl)c(-c2ccncc2)c1)c1cccc(C(F)(F)F)c1` [Compound 1BU], the EC50 is 1000 to 30000 nM at human TGR5 receptor and greater than 30000 nM at mouse TGR5 receptor.
On the same counts, the results for `O=S(=O)(NCc1cc(Cl)cc(-c2ccncc2)c1)c1cccc(C(F)(F)F)c1` [Compound 1BV] are 1000 to 30000 nM and greater than 30000 nM.
Take `Cc1ccc(C(C)(C)NS(=O)(=O)c2cccc(C(F)(F)F)c2)cc1-c1ccncc1` [Compound 1BW]: the EC50 on human TGR5 receptor was 1000 to 30000 nM; at mouse TGR5 receptor, greater than 30000 nM.
Turning to `CCC(NS(=O)(=O)c1cccc(C(F)(F)F)c1)c1cccc(-c2ccncc2)c1` (stereo not shown) [Compound 1BZ], the values for the EC50 on human TGR5 receptor and on mouse TGR5 receptor were 100 to 999 nM and 1000 to 30000 nM, respectively.
As to `Cc1cccc(S(=O)(=O)NCc2cccc(-c3c(C)noc3C)c2)c1` [Compound 2, N-(3-(3,5-dimethylisoxazol-4-yl)benzyl)-3-methylbenzenesulfonamide], the EC50 on human TGR5 receptor and at mouse TGR5 receptor was 1000 to 30000 nM each time.
Turning to `Cc1noc(C)c1-c1cccc(CNS(=O)(=O)c2cccc(Cl)c2)c1` [Compound 2AA], the EC50 at human TGR5 receptor and at mouse TGR5 receptor was 1000 to 30000 nM each time.
Regarding `COc1cccc(S(=O)(=O)NCc2cccc(-c3c(C)noc3C)c2)c1` [Compound 2AB], the EC50 at human TGR5 receptor and at mouse TGR5 receptor was 1000 to 30000 nM each time.
Consider `Cc1noc(C)c1-c1cccc(CNS(=O)(=O)c2ccccc2C(F)(F)F)c1` [Compound 2AC], for which the EC50 at human TGR5 receptor and on mouse TGR5 receptor was 1000 to 30000 nM throughout.
On to `Cc1noc(C)c1-c1cccc(CNS(=O)(=O)c2ccc(Cl)c(C(F)(F)F)c2)c1` [Compound 2AD], for which the EC50 on human TGR5 receptor was 1000 to 30000 nM; on mouse TGR5 receptor it was greater than 30000 nM.
With `Cc1noc(C)c1-c1cccc(CNS(=O)(=O)c2ccc(F)c(C(F)(F)F)c2)c1` [Compound 2AE], the values for the EC50 at human TGR5 receptor and on mouse TGR5 receptor were 1000 to 30000 nM and greater than 30000 nM, respectively.
Take `Cc1noc(C)c1-c1cccc(CNS(=O)(=O)c2cc(C(F)(F)F)ccc2F)c1` [Compound 2AF]: the figures for the EC50 on human TGR5 receptor and on mouse TGR5 receptor were 1000 to 30000 nM and greater than 30000 nM, respectively.
As to `Cc1noc(C)c1-c1cccc(CNS(=O)(=O)c2cc(F)cc(C(F)(F)F)c2)c1` [Compound 2AG], the EC50 is 1000 to 30000 nM at human TGR5 receptor and greater than 30000 nM on mouse TGR5 receptor.
For the molecule `Cc1noc(C)c1-c1cccc(CNS(=O)(=O)c2cc(C(F)(F)F)cc(C(F)(F)F)c2)c1` [Compound 2AH], the half-maximal effective concentration (EC50) is 1000 to 30000 nM at human TGR5 receptor and greater than 30000 nM on mouse TGR5 receptor.
On the same counts, the results for `Cc1cccc(S(=O)(=O)NCc2cccc(-c3ccncc3)c2)c1` [Compound 2AI] are 1000 to 30000 nM and 1000 to 30000 nM.
On the same counts, the results for `O=S(=O)(NCc1cccc(-c2ccncc2)c1)c1cccc(Cl)c1` [Compound 2AJ] are 1000 to 30000 nM and 1000 to 30000 nM.
The corresponding values for `O=S(=O)(NCc1cccc(-c2ccncc2)c1)c1cccc(F)c1` [Compound 2AK] are 1000 to 30000 nM and greater than 30000 nM.
For `COc1cccc(S(=O)(=O)NCc2cccc(-c3ccncc3)c2)c1` [Compound 2AL], the EC50 at human TGR5 receptor is 1000 to 30000 nM; at mouse TGR5 receptor, greater than 30000 nM.
On the same counts, the results for `O=S(=O)(NCc1cccc(-c2ccncc2)c1)c1ccccc1C(F)(F)F` [Compound 2AM] are 1000 to 30000 nM and 1000 to 30000 nM.
Turning to `O=[N+]([O-])c1cccc(S(=O)(=O)NCc2cccc(-c3ccncc3)c2)c1` [Compound 2AN], the EC50 at human TGR5 receptor and at mouse TGR5 receptor was 1000 to 30000 nM throughout.
As to `O=[N+]([O-])c1ccccc1S(=O)(=O)NCc1cccc(-c2ccncc2)c1` [Compound 2AO], the half-maximal effective concentration (EC50) on human TGR5 receptor and on mouse TGR5 receptor was 1000 to 30000 nM in each case.
On to `Cc1ccccc1S(=O)(=O)NCc1cccc(-c2ccncc2)c1` [Compound 2AP], for which the results for the EC50 at human TGR5 receptor and at mouse TGR5 receptor were 1000 to 30000 nM and greater than 30000 nM, respectively.
The corresponding values for `O=S(=O)(NCc1cccc(-c2ccncc2)c1)c1cccc(Br)c1` [Compound 2AQ] are 100 to 999 nM and greater than 30000 nM.
As for `O=S(=O)(NCc1cccc(-c2ccncc2)c1)c1ccccc1Cl` [Compound 2AR], the EC50 at human TGR5 receptor was 1000 to 30000 nM; at mouse TGR5 receptor, greater than 30000 nM.
On to `O=S(=O)(NCc1cccc(-c2ccncc2)c1)c1ccccc1F` [Compound 2AS], for which the EC50 on human TGR5 receptor is 1000 to 30000 nM; at mouse TGR5 receptor it was greater than 30000 nM.
The corresponding values for `COc1cnccc1-c1cccc(C(C)(C)NS(=O)(=O)c2cccc(Br)c2)c1` [Compound 2AT] are 100 to 999 nM and 1000 to 30000 nM.
Consider `COc1cnccc1-c1cccc(C(C)(C)NS(=O)(=O)c2cc(C(F)(F)F)ccc2OC)c1` [Compound 2AW], for which the EC50 on human TGR5 receptor and at mouse TGR5 receptor was 1000 to 30000 nM in each case.
For the molecule `COc1cnccc1-c1cccc(C(C)(C)NS(=O)(=O)c2ccccc2Cl)c1` [Compound 2AX], the EC50 on human TGR5 receptor and at mouse TGR5 receptor was 100 to 999 nM each time.
Consider `COc1cnccc1-c1cccc(C(C)(C)NS(=O)(=O)c2cccc(Cl)c2)c1` [Compound 2AY], for which the EC50 at human TGR5 receptor and on mouse TGR5 receptor was 100 to 999 nM each time.
On to `COc1cnccc1-c1cccc(C(C)(C)NS(=O)(=O)c2cccc(C)c2)c1` [Compound 2AZ], for which the EC50 on human TGR5 receptor and at mouse TGR5 receptor was 100 to 999 nM in each case.
With `COc1cnccc1-c1cccc(C(C)(C)NS(=O)(=O)c2cc(Br)cc(C(F)(F)F)c2)c1` [Compound 2BB], the EC50 on human TGR5 receptor and on mouse TGR5 receptor was 100 to 999 nM throughout.
Consider `COc1cnccc1-c1cccc([C@H](C)NS(=O)(=O)c2cccc(Br)c2)c1` [Compound 2BO], for which the EC50 at human TGR5 receptor was 100 to 999 nM; on mouse TGR5 receptor it was 1000 to 30000 nM.
The corresponding values for `COc1cnccc1-c1cccc([C@H](C)NS(=O)(=O)c2ccccc2[N+](=O)[O-])c1` [Compound 2BP] are less than 100 nM and 100 to 999 nM.
As to `C[C@H](NS(=O)(=O)c1cccc(Br)c1)c1cccc(-c2ccncc2Cl)c1` [Compound 2BR], the EC50 fell in the range of 100 to 999 nM on human TGR5 receptor and 1000 to 30000 nM at mouse TGR5 receptor.
`C[C@H](NS(=O)(=O)c1ccccc1[N+](=O)[O-])c1cccc(-c2ccncc2Cl)c1` [Compound 2BS]: the EC50 on human TGR5 receptor and at mouse TGR5 receptor was 100 to 999 nM in each case.
Turning to `C[C@H](NS(=O)(=O)c1ccccc1C(F)(F)F)c1cccc(-c2ccncc2Cl)c1` [Compound 2BT], the values for the EC50 on human TGR5 receptor and at mouse TGR5 receptor were less than 100 nM and 100 to 999 nM, respectively.
`CCc1cnccc1-c1cccc(C(C)(C)NS(=O)(=O)c2cccc(C(F)(F)F)c2)c1` [Compound 5AB, N-(2-(3-(3-ethylpyridin-4-yl)phenyl)propan-2-yl)-3-(trifluoromethyl)benzenesulfonamide]: the EC50 was less than 100 nM on human TGR5 receptor and 100 to 999 nM on mouse TGR5 receptor.

A word on the EC50: it is the concentration at which the effect is half-maximal.
